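These data come from cells grown in 96-well plates and exposed to compound for 48 hours at five concentrations. Here, GI50 denotes the concentration required for 50% inhibition of growth. TGI denotes the concentration required for complete inhibition of growth.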

Test systems include A549 NSCLC; SW-620 colon; SF-539 CNS; SK-MEL-2 melanoma; NCI-H522 lung; SR leukemia; UO-31 renal; UACC-257 melanoma; SF-295 CNS; SN12C renal.
What all share (assay): NCI-60 cell line screen, 48 h

Regarding `COc1ccc(C2=Nc3cc(C)c(C)cc3NC(c3ccccc3)C2)cc1` (stereo not given), the TGI with A549 NSCLC is greater than 100 µM; with SW-620 colon, greater than 100 µM; in the test on SF-539 CNS, greater than 100 µM; with SK-MEL-2 melanoma it was greater than 100 µM; in the test on NCI-H522 lung, greater than 100 µM; with SR leukemia it was 54.5 µM. The TGI in the test with UO-31 renal, with UACC-257 melanoma, in the test on SF-295 CNS and in the test on SN12C renal was greater than 100 µM in each case.

For `NS(=O)(=O)c1ccc(/C=C/c2ccc(F)cc2)cc1`, the GI50 was 8.93 µM with A549 NSCLC, 29.1 µM in the test on SF-539 CNS, 4.81 µM in the test with NCI-H522 lung and 10.5 µM with SR leukemia. For the same compound, the TGI in the test on A549 NSCLC is 37.1 µM; in the test on SW-620 colon, greater than 100 µM; with SF-539 CNS, 96.1 µM; with SK-MEL-2 melanoma it was 86.7 µM; with NCI-H522 lung, 27.6 µM; with SR leukemia, greater than 100 µM. Further, the TGI with UO-31 renal was 61.1 µM; with UACC-257 melanoma, greater than 100 µM; in the test with SF-295 CNS it was 78.6 µM; in the test with SN12C renal, greater than 100 µM.

Consider `CN(C)c1nc(N)nc(CS)n1`, for which the TGI in the test on A549 NSCLC, in the test with SW-620 colon, in the test with SF-539 CNS, in the test on SK-MEL-2 melanoma, in the test on NCI-H522 lung and in the test with SR leukemia was greater than 100 µM each time. For the same compound, the TGI in the test with UO-31 renal, in the test on UACC-257 melanoma, in the test on SF-295 CNS and in the test on SN12C renal was greater than 100 µM in each case.

For `Cc1ccc(OCC2OC(n3cnc4nc(N)nc(Cl)c43)CC2Oc2ccc(C)cc2)cc1` (stereo not given), the TGI was 58.3 µM in the test on A549 NSCLC; greater than 100 µM with SW-620 colon; greater than 100 µM with SF-539 CNS; 37.7 µM in the test with SK-MEL-2 melanoma; 47.8 µM in the test with NCI-H522 lung; greater than 100 µM with SR leukemia. Further, the results for the TGI with UACC-257 melanoma, with SF-295 CNS and with SN12C renal were greater than 100 µM, 84.1 µM and 41.4 µM, respectively.

For `CN(C)c1ccc(/C(F)=C(F)/C(F)=C(F)/C(F)=C(\F)c2ccc(Br)cc2)cc1`, the TGI with A549 NSCLC is greater than 100 µM; with SW-620 colon, greater than 100 µM; in the test with SF-539 CNS, greater than 100 µM; with SK-MEL-2 melanoma, greater than 100 µM; with NCI-H522 lung, 27.1 µM; in the test on SR leukemia, greater than 100 µM. Further, the TGI in the test on UO-31 renal was greater than 100 µM; with UACC-257 melanoma, greater than 100 µM; with SF-295 CNS, greater than 52.1 µM; in the test with SN12C renal it was greater than 25.5 µM.

Consider `Cc1cccc(Nc2nn3c(=O)c4c5c(sc4nc3s2)CCCC5)c1`, for which the TGI with A549 NSCLC, in the test with SW-620 colon, in the test with SF-539 CNS, with SK-MEL-2 melanoma, with NCI-H522 lung and in the test with SR leukemia was greater than 100 µM each time. Also, the TGI with UO-31 renal was greater than 100 µM; in the test with UACC-257 melanoma, greater than 100 µM; in the test on SF-295 CNS, 14.4 µM; in the test on SN12C renal it was greater than 100 µM.

For the compound `COC(=O)c1cc(=O)[nH]c(=O)[nH]1`, the TGI in the test with A549 NSCLC, in the test with SW-620 colon, in the test on SK-MEL-2 melanoma, with NCI-H522 lung, in the test on SR leukemia and in the test on UO-31 renal was greater than 100 µM each time. The TGI in the test on UACC-257 melanoma, in the test on SF-295 CNS and with SN12C renal was greater than 100 µM in each case.

For `Nc1ccc(S(=O)(=O)c2ccc(NCN3C(=O)NC(=O)C(=O)C3=O)cc2)cc1`, the TGI with A549 NSCLC, with SW-620 colon, in the test on SK-MEL-2 melanoma, in the test with NCI-H522 lung, with SR leukemia and in the test on UO-31 renal was greater than 100 µM each time. The TGI with UACC-257 melanoma, with SF-295 CNS and in the test on SN12C renal was greater than 100 µM each time.

For `O=C(NCCCCCCCCCCCCNC(=O)Nc1cccc2ccccc12)Nc1cccc2ccccc12`, the TGI in the test on A549 NSCLC amounted to 32.9 µM; in the test on SW-620 colon, 33.1 µM; in the test on SF-539 CNS, 27 µM; with SK-MEL-2 melanoma it was 35.7 µM; in the test with NCI-H522 lung, 28.9 µM; in the test on SR leukemia, 31.7 µM. The TGI in the test with UO-31 renal was 33.9 µM; with SF-295 CNS it was 27.7 µM; with SN12C renal, 31.6 µM.

For `Cc1ccc2c(=O)cc(-c3ccc(Cl)s3)[nH]c2n1`, the TGI with A549 NSCLC was greater than 29.3 µM; in the test with SW-620 colon it was greater than 100 µM; in the test with SF-539 CNS, 3.93 µM; in the test with SK-MEL-2 melanoma, greater than 100 µM; with SR leukemia it was greater than 76.2 µM; in the test on UO-31 renal, 0.301 µM. The TGI with UACC-257 melanoma is greater than 100 µM; in the test on SF-295 CNS, 4.85 µM; in the test on SN12C renal, greater than 52.9 µM.

Consider `COC(OC)[C@@H]1OC[C@H](n2cnc3c(N)ncnc32)[C@H]1O`, for which the TGI in the test with A549 NSCLC, in the test on SW-620 colon, with SF-539 CNS, in the test with SK-MEL-2 melanoma, with SR leukemia and in the test with UO-31 renal was greater than 100 µM each time. Also, the TGI in the test with UACC-257 melanoma, with SF-295 CNS and in the test on SN12C renal was greater than 100 µM each time.

In the case of `C[n+]1cccc2c(=O)c3ccccc3oc21`, the TGI in the test on A549 NSCLC, in the test with SW-620 colon, in the test with SF-539 CNS, with SK-MEL-2 melanoma, in the test with NCI-H522 lung and with SR leukemia was greater than 100 µM in each case. For the same compound, the TGI in the test on UO-31 renal, in the test on SF-295 CNS and with SN12C renal was greater than 100 µM in each case.

For the compound `Cc1ccc(/C(O)=C/c2nc3ccccc3sc2=O)c(C)c1`, the TGI with A549 NSCLC is greater than 100 µM; in the test on SF-539 CNS, greater than 100 µM; in the test with SK-MEL-2 melanoma, greater than 100 µM; in the test on NCI-H522 lung, 62.1 µM; in the test with SR leukemia, 75.8 µM; with UO-31 renal, greater than 100 µM. Also, the TGI in the test on UACC-257 melanoma, in the test with SF-295 CNS and in the test on SN12C renal was greater than 100 µM each time.

For `CCN(CC)N1C(=O)[N+](CC)(CC)N=C1[O-]`, the TGI in the test with A549 NSCLC, with SW-620 colon, in the test with SF-539 CNS, with SK-MEL-2 melanoma, with NCI-H522 lung and in the test on SR leukemia was greater than 100 µM throughout. Further, the TGI in the test with UO-31 renal, in the test with SF-295 CNS and in the test on SN12C renal was greater than 100 µM throughout.

For the origin of these results see PubChem BioAssay (NCI).
